Assay results taken from US10030016B2 (Sunesis Pharmaceuticals, Inc., priority 2009, dated 2018).

What was measured:
PDK1 = PDK1 (Homo sapiens (Human), UniProt O15530); assay: PDK1 kinase assay (coupled PDK1/AKT/FAM-crosstide assay, IMAP fluorescence polarization); format: biochemical; conditions: inhibition of phospo-PDK1 in vitro
Experimental: A PDK1 kinase assay was performed as follows. PDK1 (amino acids 51-359) and AKT2 (amino acids 140-467 fused to PIFtide, amino acids […]) were expressed as N-terminally tagged GST fusion proteins in insect cells and purified to homogeneity. Enzyme activity was determined in a coupled PDK1/AKT/FAM-crosstide assay and phosphorylation of FAM-crosstide was determined by standard IMAP protocol (Molecular Devices). For inhibition studies, compounds were titrated 4-fold in DMSO and diluted 40-fold into assay buffer (10 mM Tris HCl pH7.2; 10 mM MgCl2; 0.01% Triton X-100; 1 mM DTT) containing PDK1, AKT2, and FAM-crosstide (final concentrations: 0.75 nM PDK1, 10 nM unphosphorylated AKT2, and 100 nM crosstide substrate). The kinase reaction was initiated by adding ATP to a final concentration of 40 μM of PDK1 and incubated at 25° C. for 30 min. To detect assay product, the kinase reaction was combined with Progressive Binding Solution (1:600 Progressive Binding Reagent, 50% Buffer A, 50% Buffer B, Molecular Devices) in a 1:3 ratio. The mixture was incubated for 2 hours at 25° C. and the plate was scanned on an Analyst AD with excitation at 485 nm and emission at 530 nm. The fluorescence polarization value “P” is defined by the equation below. The value “mP” is generated by multiplying the P value for each reaction well by a factor of 1000. The value “ΔmP” for each well is the mP value for that well minus the mP value for the average negative control. P=(Fpar−Fperp)/(Fpar+Fperp) Eq.:
Where “par” is fluorescence intensity parallel to the excitation plane; and “perp” is fluorescence intensity perpendicular to the excitation plane. ΔmP values were plotted as a function of compound concentration and the data were analyzed with a 4-parameter fit using GraphPad Prism software.

[1] = test system: phospho-akt (Thr308) in PC-3 cells; assay: Inhibition of phospho-akt (Thr308) in PC-3 cells, MSD phospho-akt 308 ELISA kit; format: cell-based; conditions: Homo sapiens; inhibition of P308 Akt in PC-3 cells, 2 hours, no serum, MSD; read-out: EC50
Experimental: PC-3 cells were harvested by trypsin and counted. Cells were plated in coated 96-well flat bottom plates (plate 15,000 cells/well in 100 ul growth media (10% FBS, 1× pen-strep) an place in an incubator overnight.
Subject inhibitors were stocked at 50 mM, then diluted to 30 mM (4.8 μl cpd plus […] DMSO) in 100% DMSO. Three-fold dilutions were performed from 30 mM stock. (4 μl into 8 ul 100% DMSO). Aliquots of 1.0 μl of inhibitor solution were transferred into SF Medium (using deep well block).
Control wells were prepared as follows. For DMSO high controls, 1.0 μl of 100% DMSO was added into 1.0 ml SF. For low controls for PC-3 cells, 5 μM of Wortmannin (10 μl of 1 mM Wortmannin stock was added into 2 ml SF Medium. The supernatant media was removed and the plate was blotted. 100 μl of controls/media or compound/media were added to cells and placed in incubator for 2 hours. The supernatant media was removed and the plate was blotted. 55 μl of the MSD complete lysis buffer was added (10 mls Tris Lysis buffer, 200 ul protease inhibitor, 100 ul phosphatase inhibitor 1, and 100 ul phosphatase inhibitor II). The plate was placed on a plate shaker for 60 mins at 4 deg.
MSD plates were blocked for 1 hour by adding 150 μl of Blocking Solution (3% BSA) to each well. The MSD plates were washed 4× with TBST, and 50 μl lysates were transferred to MSD plate and place on plate shaker shake at 4 degrees O/N, light shaking (speed 3.5). The plate was washed 4× with TBST.
25 μl of Ab detection solution was added to each well. The plate was sealed and incubated 1 hr RT, light shaking (speed 3.5). The plate was washed 4 times with TBST. 150 μl of Read Buffer was added (5 mls 4×MSD Read Buffer+15 mls water). Finally the plate was read immediately on the MSD plate reader.

Chain of PDK1 (O15530 51-359): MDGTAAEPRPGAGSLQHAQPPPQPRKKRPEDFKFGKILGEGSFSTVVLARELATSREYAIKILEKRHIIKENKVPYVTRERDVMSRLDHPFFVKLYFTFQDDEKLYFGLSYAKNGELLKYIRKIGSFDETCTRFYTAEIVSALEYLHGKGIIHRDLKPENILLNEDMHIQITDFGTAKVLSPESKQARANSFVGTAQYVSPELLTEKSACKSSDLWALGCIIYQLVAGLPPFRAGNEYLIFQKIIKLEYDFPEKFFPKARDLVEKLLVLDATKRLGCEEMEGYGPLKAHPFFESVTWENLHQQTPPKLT

| Structure (SMILES) | IC50 (PDK1) [nM] | EC50 [1] [nM] |
| --- | --- | --- |
| COc1ccnc(NCc2ccc(-c3ccc4ncnc(N)c4c3)s2)c1C(=O)N[C@@H](C)c1ccc(F)cc1 [Ex. 7.6, (S)-2-(((5-(4-aminoquinazolin-6-yl)thiophen-2-yl)methyl)amino)-N-(1-(4-fluoro-phenyl)ethyl)-4-methoxynicotinamide] | < 100 | < 1000 |
| Nc1ncnc2ccc(-c3ccc(CNc4nccc5ncn(Cc6ccc(F)c(F)c6)c(=O)c45)s3)cc12 [Ex. 7.8] | < 100 | < 1000 |
| C[C@@H](c1ccc(F)cc1)n1cnc2ccnc(NCc3ccc(-c4ccc5ncnc(N)c5c4)s3)c2c1=O [Ex. 7.9] | < 100 | < 1000 |
| Nc1ncnc2ccc(-c3ccc(CNc4nc(Cl)cc5ncn(Cc6ccc(F)c(F)c6)c(=O)c45)s3)cc12 [Ex. 7.17, 5-({[5-(4-aminoquinazolin-6-yl)thiophen-2-yl]methyl}amino)-7-chloro-N-3-(3,4-difluorobenzyl)pyrido [4,3-d]pyrimidin-4(3H)-one] | < 100 | 1000 to 10000 |
| C=C1c2ccnc(NCc3ccc(-c4ccc5ncnc(N)c5c4)s3)c2C(=O)N1Cc1ccc(F)c(F)c1 [Ex. 7.20] | 100 to 1000 | 1000 to 10000 |
| C[C@H](NC(=O)c1cc(I)cnc1NCc1ccc(-c2ccc3ncnc(N)c3c2)s1)c1ccc(F)c(F)c1 [Ex. 7.21.1, 2-({[5-(4-aminoquinazolin-6-yl)thiophen-2-yl]methyl}amino)-N-[(1S)-1-(3,4-difluorophenyl)ethyl]-5-iodopyridine-3-carboxamide] | 100 to 1000 | < 1000 |
| C[C@@H](c1ccc(F)c(F)c1)n1cnc2c(C#N)cnc(NCc3ccc(-c4ccc5ncnc(N)c5c4)s3)c2c1=O [Ex. 7.25, (S)-5-(((5-(4-aminoquinazolin-6-yl)thiophen-2-yl)methyl)amino)-3-(1-(3,4-difluorophenyl)ethyl)-4-oxo-3,4-dihydropyrido[4,3-d]pyrimidine-8-carbonitrile] | < 100 | < 1000 |
| Nc1ncnc2ccc(-c3ccc(CNc4ncc(OCc5ccccc5)cc4C(=O)NCc4ccc(F)c(F)c4)s3)cc12 [Ex. 8.1.1, 2-({[5-(4-aminoquinazolin-6-yl)thiophen-2-yl]methyl}amino)-5-(benzyloxy)-N-(3,4-difluorobenzyl)pyridine-3-carboxamide] | < 100 | 1000 to 10000 |
| Nc1cnc(NCc2ccc(-c3ccc4ncnc(N)c4c3)s2)c(C(=O)NCc2ccc(F)c(F)c2)c1 [Ex. 8.4, 2-({[5-(4-aminoquinazolin-6-yl)thiophen-2-yl]methyl}amino)-N-(3,4-difluorobenzyl)-5-aminopyridine-3-carboxamide] | < 100 | 1000 to 10000 |
| CS(=O)(=O)Nc1cnc(NCc2ccc(-c3ccc4ncnc(N)c4c3)s2)c(C(=O)NCc2ccc(F)c(F)c2)c1 [Ex. 8.6.1, 2-({[5-(4-aminoquinazolin-6-yl)thiophen-2-yl]methyl}amino)-N-(3,4-difluorobenzyl)-5-[(methylsulfonyl)amino]pyridine-3-carboxamide] | < 100 | < 1000 |
| Nc1ncnc2ccc(-c3ccc(CNc4ncc(C5COC5)cc4C(=O)NCc4ccc(F)c(F)c4)s3)cc12 [Ex. 8.8.4, 2-((5-(4-aminoquinazolin-6-yl)thiophen-2-yl)methylamino)-N-(3,4-difluorobenzyl)-5-(oxetan-3-yl)nicotinamide] | < 100 | < 1000 |
| Nc1ncnc2ccc(-c3ccc(CNc4ncc(Br)cc4C(=O)NCc4ccc(F)c(F)c4)s3)cc12 [Ex. 8.9, 2-({[5-(4-aminoquinazolin-6-yl)thiophen-2-yl]methyl}amino)-N-(3,4-difluorobenzyl)-5-bromopyridine-3-carboxamide] | < 100 | < 1000 |
| Nc1ncnc2ccc(-c3ccc(CNc4ncc(C(F)(F)F)cc4C(=O)NCc4ccc(F)c(F)c4)s3)cc12 [Ex. 8.12.1, 2-(((5-(4-aminoquinazolin-6-yl)thiophen-2-yl)methyl)amino)-N-(3,4-difluorobenzyl)-5-(trifluoromethyl)nicotinamide] | < 100 | < 1000 |

Other lines, results leading:

| IC50 (PDK1) [nM] | EC50 [1] [nM] | Structure (SMILES) |
| --- | --- | --- |
| 100 to 1000 | > 10000 | CCOc1ccnc(NCc2ccc(-c3ccc4ncnc(N)c4c3)s2)c1C(=O)N[C@@H](C)c1ccc(F)cc1 [Ex. 7.7, (S)-2-(((5-(4-aminoquinazolin-6-yl)thiophen-2-yl)methyl)amino)-N-(1-(4-fluoro-phenyl)ethyl)-4-ethoxynicotinamide] |
| < 100 | < 1000 | Nc1ncnc2ccc(-c3ccc(CNc4nccc5c4C(=O)N(Cc4ccc(F)c(F)c4)CC5)s3)cc12 [Ex. 7.18, 8-({[5-(4-aminoquinazolin-6-yl)thiophen-2-yl]methyl}amino)-2-(3,4-difluorobenzyl)-3,4-dihydro-2,7-naphthyridin-1(2H)-one] |
| 100 to 1000 | 1000 to 10000 | Nc1ncnc2ccc(-c3ccc(CNc4nccc5c4C(=O)N(Cc4ccc(F)c(F)c4)C5)s3)cc12 [Ex. 7.19, 4-({[5-(4-aminoquinazolin-6-yl)thiophen-2-yl]methyl}amino)-2-(3,4-difluorobenzyl)-1,2-dihydro-3H-pyrrole[3,4-c]pyridin-3-one] |
| < 100 | < 1000 | NC(=O)c1cnc(NCc2ccc(-c3ccc4ncnc(N)c4c3)s2)c(C(=O)NCc2ccc(F)c(F)c2)c1 [Ex. 7.24.1, 2-({[5-(4-aminoquinazolin-6-yl)thiophen-2-yl]methyl}amino)-N˜3˜-(3,4-difluorobenzyl)pyridine-3,5-dicarboxamide] |
| < 100 | < 1000 | Nc1ncnc2ccc(-c3ccc(CNc4ncc([N+](=O)[O-])cc4C(=O)NCc4ccc(F)c(F)c4)s3)cc12 [Ex. 8.2, 2-{[5-(4-Amino-quinazolin-6-yl)-thiophen-2-ylmethyl]-amino}-N-(3,4-difluoro-benzyl)-5-nitro-nicotinamide] |
| < 100 | < 1000 | Nc1ncnc2ccc(-c3ccc(CNc4ncc(I)cc4C(=O)NCc4ccc(F)c(F)c4)s3)cc12 [Ex. 8.3, 2-{[5-(4-amino-quinazolin-6-yl)-thiophen-2-ylmethyl]-amino}-N-(3,4-difluoro-benzyl)-5-iodo-nicotinamide] |
| < 100 | 1000 to 10000 | CC(=O)Nc1cnc(NCc2ccc(-c3ccc4ncnc(N)c4c3)s2)c(C(=O)NCc2ccc(F)c(F)c2)c1 [Ex. 8.5.1, 5-(acetylamino)-2-({[5-(4-aminoquinazolin-6-yl)thiophen-2-yl]methyl}amino)-N-(3,4-difluorobenzyl)pyridine-3-carboxamide] |
| 100 to 1000 | < 1000 | CNS(=O)(=O)c1cnc(NCc2ccc(-c3ccc4ncnc(N)c4c3)s2)c(C(=O)NCc2ccc(F)c(F)c2)c1 [Ex. 8.7.1, 2-(((5-(4-aminoquinazolin-6-yl)thiophen-2-yl)methyl)amino)-N-(3,4-difluorobenzyl)-5-(N-methylsulfamoyl)nicotinamide] |
| < 100 | < 1000 | N#Cc1cnc(NCc2ccc(-c3ccc4ncnc(N)c4c3)s2)c(C(=O)NCc2ccc(F)c(F)c2)c1 [Ex. 8.8.1, 2-(((5-(4-aminoquinazolin-6-yl)thiophen-2-yl)methyl)amino)-5-cyano-N-(3,4-difluorobenzyl)nicotinamide] |
| < 100 | < 1000 | C#Cc1cnc(NCc2ccc(-c3ccc4ncnc(N)c4c3)s2)c(C(=O)NCc2ccc(F)c(F)c2)c1 [Ex. 8.10, 2-(((5-(4-aminoquinazolin-6-yl)thiophen-2-yl)methyl)amino)-N-(3,4-difluorobenzyl)-5-ethynylnicotinamide] |
